# Calls of active or inactive are those of the source. The calls are words filed in the database; no cut-off is given here.
# Columns and labels:
# [1] = target: T1, Alpha-2A adrenergic receptor (Homo sapiens, UniProt P08913)
# T1 sequence (P08913 whole entry): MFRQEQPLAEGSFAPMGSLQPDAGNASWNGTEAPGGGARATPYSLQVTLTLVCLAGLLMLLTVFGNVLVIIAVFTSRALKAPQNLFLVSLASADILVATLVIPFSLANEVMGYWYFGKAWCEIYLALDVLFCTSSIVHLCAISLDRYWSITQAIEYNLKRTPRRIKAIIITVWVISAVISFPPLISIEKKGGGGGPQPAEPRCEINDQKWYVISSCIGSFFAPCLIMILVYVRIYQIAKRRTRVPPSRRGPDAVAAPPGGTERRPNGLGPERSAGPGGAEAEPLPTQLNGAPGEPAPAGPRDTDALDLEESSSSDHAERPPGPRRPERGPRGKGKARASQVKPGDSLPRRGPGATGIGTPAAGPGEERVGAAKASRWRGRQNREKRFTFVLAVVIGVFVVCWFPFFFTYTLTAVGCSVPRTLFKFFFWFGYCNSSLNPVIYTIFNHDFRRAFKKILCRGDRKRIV
# Description: Agonist activity at alpha2A-adrenoceptor (unknown origin) expressed in CHO-alpha2-AR-PKAcatEGFP cells assessed as intracellular cAMP concentration by measuring PKA translocation after 15 mins incubation by PKA redistribution assay
# [2] = target: T2, Alpha-1D adrenergic receptor (Homo sapiens, UniProt P25100); experiment: Binding affinity to human alpha1D-adrenoceptor
# T2 sequence (P25100 whole entry): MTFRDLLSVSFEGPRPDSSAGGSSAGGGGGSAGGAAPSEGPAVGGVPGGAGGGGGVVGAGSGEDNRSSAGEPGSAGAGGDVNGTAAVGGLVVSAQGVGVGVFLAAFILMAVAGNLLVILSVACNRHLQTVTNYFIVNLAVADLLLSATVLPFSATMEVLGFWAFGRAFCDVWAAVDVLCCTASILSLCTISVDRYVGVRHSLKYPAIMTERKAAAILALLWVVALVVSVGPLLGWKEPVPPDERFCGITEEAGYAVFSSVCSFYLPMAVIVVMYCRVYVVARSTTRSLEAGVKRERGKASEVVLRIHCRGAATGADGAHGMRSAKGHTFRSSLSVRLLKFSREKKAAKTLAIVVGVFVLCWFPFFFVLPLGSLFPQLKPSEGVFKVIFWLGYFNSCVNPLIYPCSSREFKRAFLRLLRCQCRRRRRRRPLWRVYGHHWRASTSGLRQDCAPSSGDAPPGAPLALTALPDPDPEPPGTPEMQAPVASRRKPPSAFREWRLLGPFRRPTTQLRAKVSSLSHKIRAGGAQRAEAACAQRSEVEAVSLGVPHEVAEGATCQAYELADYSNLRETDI
# [3] = target: T3, Alpha-1A adrenergic receptor (Homo sapiens, UniProt P35348)
# T3 sequence (P35348 whole entry): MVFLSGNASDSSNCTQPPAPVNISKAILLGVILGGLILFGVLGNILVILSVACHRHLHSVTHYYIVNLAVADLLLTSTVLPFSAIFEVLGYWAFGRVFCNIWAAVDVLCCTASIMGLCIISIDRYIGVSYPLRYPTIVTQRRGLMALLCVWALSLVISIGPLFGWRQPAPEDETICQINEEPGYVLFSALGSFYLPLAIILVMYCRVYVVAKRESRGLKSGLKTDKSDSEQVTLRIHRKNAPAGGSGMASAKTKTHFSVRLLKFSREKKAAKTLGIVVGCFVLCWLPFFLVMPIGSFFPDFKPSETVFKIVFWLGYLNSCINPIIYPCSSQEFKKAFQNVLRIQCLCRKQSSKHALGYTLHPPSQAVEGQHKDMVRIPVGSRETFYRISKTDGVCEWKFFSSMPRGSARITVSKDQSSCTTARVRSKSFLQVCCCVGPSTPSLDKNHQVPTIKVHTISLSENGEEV
# Description: Binding affinity to human alpha1A-adrenoceptor
# [4] = target: T4, Alpha-1B adrenergic receptor (Homo sapiens, UniProt P35368); experiment: Binding affinity to human alpha1B-adrenoceptor
# T4 sequence (P35368 whole entry): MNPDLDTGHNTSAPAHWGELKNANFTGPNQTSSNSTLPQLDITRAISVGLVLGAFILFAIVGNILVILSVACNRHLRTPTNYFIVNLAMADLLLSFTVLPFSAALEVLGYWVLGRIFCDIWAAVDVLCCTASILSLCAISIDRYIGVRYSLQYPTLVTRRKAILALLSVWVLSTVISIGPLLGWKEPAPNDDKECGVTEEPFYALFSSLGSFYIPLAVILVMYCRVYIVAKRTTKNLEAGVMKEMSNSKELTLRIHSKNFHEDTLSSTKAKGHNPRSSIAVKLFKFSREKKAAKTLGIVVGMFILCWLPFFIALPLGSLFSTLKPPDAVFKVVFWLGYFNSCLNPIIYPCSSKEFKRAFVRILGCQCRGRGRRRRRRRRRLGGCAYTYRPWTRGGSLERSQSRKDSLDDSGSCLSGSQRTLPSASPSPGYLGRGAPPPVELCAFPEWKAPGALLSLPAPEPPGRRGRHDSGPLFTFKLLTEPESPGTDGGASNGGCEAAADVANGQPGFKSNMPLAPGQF
# [5] = Selectivity index, ratio of EC50 for alpha2A-adrenoceptor (unknown origin) to EC50 for alpha2B-adrenoceptor (unknown origin)
# [6] = Selectivity index, ratio of EC50 for alpha2A-adrenoceptor (unknown origin) to EC50 for alpha1A-adrenoceptor (unknown origin)
# [7] = Selectivity index, ratio of EC50 for alpha2A-adrenoceptor (unknown origin) to EC50 for alpha2C-adrenoceptor (unknown origin)
# [8] = target: T5, Alpha-2B adrenergic receptor (Homo sapiens, UniProt P18089); experiment: Agonist activity at alpha2B-adrenoceptor (unknown origin) expressed in U2OS-EGFP-NFAT2-alpha2B-AR cells assessed as increase in intracellular calcium level measured after 15 mins incubation by Micro automated microscopy; assay type: functional, cell-based
# T5 sequence (P18089 whole entry): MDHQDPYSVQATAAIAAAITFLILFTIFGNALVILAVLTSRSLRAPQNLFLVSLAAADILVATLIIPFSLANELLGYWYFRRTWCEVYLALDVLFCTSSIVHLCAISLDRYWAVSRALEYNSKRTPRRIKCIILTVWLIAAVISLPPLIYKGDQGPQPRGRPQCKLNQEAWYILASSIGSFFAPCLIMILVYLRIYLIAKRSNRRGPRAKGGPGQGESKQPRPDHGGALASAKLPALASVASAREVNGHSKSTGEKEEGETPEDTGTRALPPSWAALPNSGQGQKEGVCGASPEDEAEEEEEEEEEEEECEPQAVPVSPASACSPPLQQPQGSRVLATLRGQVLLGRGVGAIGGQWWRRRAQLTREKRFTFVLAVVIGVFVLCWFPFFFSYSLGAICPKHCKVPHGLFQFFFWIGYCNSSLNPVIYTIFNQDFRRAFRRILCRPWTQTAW
# [9] = target: T3, Alpha-1A adrenergic receptor; experiment: Agonist activity at alpha1A-adrenoceptor (unknown origin) expressed in HEK293T cells assessed as fluorescence intensity measured after 30 mins by IP-one homogeneous time-resolved fluorescence assay; assay type: functional, cell-based
# [10] = target: T6, Alpha-2C adrenergic receptor (Homo sapiens, UniProt P18825); experiment: Agonist activity at alpha2C-adrenoceptor (unknown origin) expressed in CHO-alpha2C-PKAcatEGFP cells assessed as increase in intracellular calcium level measured after 15 mins incubation by Micro automated microscopy; assay type: functional, cell-based
# T6 sequence (P18825 whole entry): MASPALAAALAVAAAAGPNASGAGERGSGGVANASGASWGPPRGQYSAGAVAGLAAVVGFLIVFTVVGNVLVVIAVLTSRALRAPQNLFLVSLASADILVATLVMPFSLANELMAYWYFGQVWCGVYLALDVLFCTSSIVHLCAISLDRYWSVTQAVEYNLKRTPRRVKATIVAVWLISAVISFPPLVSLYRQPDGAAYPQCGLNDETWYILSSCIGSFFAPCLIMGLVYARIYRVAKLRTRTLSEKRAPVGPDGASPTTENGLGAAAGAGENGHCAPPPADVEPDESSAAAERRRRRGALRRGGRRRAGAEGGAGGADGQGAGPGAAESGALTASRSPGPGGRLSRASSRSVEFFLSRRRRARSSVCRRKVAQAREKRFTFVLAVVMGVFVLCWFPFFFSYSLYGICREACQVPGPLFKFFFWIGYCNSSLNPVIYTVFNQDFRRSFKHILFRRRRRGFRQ
# HEK293T [11] = experiment: Agonist activity at alpha2A-adrenoceptor Y409A mutant (unknown origin) expressed in HEK293T cells co-expressing pGloSensor-22F cAMP plasmid assessed as at 0.000001 to 100 uM measured after 10 mins incubation by multiplate reader; assay type: cell-based; details: Homo sapiens, dose lower 1e-06 µM, dose upper 100.0 µM
# Mus musculus [12] = experiment: Hypnotic activity in ip dosed C57BL/6 mouse assessed as increase in loss of righting reflex (LORR)
# [13] = Metabolic stability in mouse liver microsomes assessed as elimination half life; assay type: ADME, Microsome
# Mus musculus [14] = experiment: Hypnotic activity in ip dosed C57BL/6 mouse assessed as increase in immobility time; assay type: functional, organism-based
# HEK293T [15] = experiment: Agonist activity at alpha2A-adrenoceptor F427A mutant (unknown origin) expressed in HEK293T cells co-expressing pGloSensor-22F cAMP plasmid assessed as at 1 to 100 uM measured after 10 mins incubation by multiplate reader; assay type: cell-based; details: Homo sapiens, dose 1-100 µM
# [16] = Metabolic stability in mouse liver microsomes assessed as intrinsic clearance; assay type: ADME, Microsome; details: read-out: CLH
# HEK293T [17] = experiment: Agonist activity at alpha2A-adrenoceptor D128A mutant (unknown origin) expressed in HEK293T cells co-expressing pGloSensor-22F cAMP plasmid assessed as at 0.000001 to 100 uM measured after 10 mins incubation by multiplate reader; assay type: cell-based; details: Homo sapiens, dose lower 1e-06 µM, dose upper 100.0 µM
# [18] = target: T5, Alpha-2B adrenergic receptor
# Description: Binding affinity to human alpha2B-adrenoceptor
smiles,measurement,setting,value
Clc1ccc2c(c1)C(c1cnc[nH]1)=CCO2,EC50,[1],899 nM
Clc1cc(Cl)c2c(c1)C(c1c[nH]cn1)=CCO2,EC50,[1],4630 nM
N=C(N)NC(=O)Cc1c(Cl)cccc1Cl [GUANFACINE],Ki,[2],11700 nM
same,Ki,[3],4680 nM
same,Ki,[4],135000 nM
Clc1cccc2c1OCCC2c1c[nH]cn1 (stereo not drawn),EC50,[1],2.36 nM
same,Selectivity Index,[5],10
same,Selectivity Index,[6],1.7
same,Selectivity Index,[7],15
same,EC50,[8],24.1 nM
same,EC50,[9],4.05 nM
same,EC50,[10],35.8 nM
Brc1cccc2c1OCC=C2c1c[nH]cn1,EC50,[1],0.78 nM
same,Selectivity Index,[5],238
same,Activity,HEK293T [11],inactive
same,ED50,Mus musculus [12],1.54 mg/kg
same,half-life,[13],5.56 min
same,Selectivity Index,[6],41
same,Selectivity Index,[7],48
same,Activity,Mus musculus [14],Dose-Dependent Effect
same,EC50,[8],186 nM
same,Activity,HEK293T [15],inactive
same,microsomal CLint,[16],249 µL/min/mg
same,EC50,[9],32 nM
same,Activity,HEK293T [17],inactive
same,EC50,[10],37.2 nM
C1=C(c2ccc3c(c2)CC3)CNCC1,Ki,[18],60.3 nM
Clc1cc(Br)cc2c1OCC=C2c1c[nH]cn1,EC50,[1],> 5000 nM
Cc1ccc2c(c1)C(c1c[nH]cn1)=CCO2,EC50,[1],896 nM
Fc1cc(Br)c2c(c1)C(c1c[nH]cn1)=CCO2,EC50,[1],1.14 nM
same,Selectivity Index,[5],73
same,Selectivity Index,[6],42
same,Selectivity Index,[7],24
same,EC50,[8],83.4 nM
same,EC50,[9],48.4 nM
same,EC50,[10],27.9 nM
Fc1cccc2c1OCC=C2c1c[nH]cn1,EC50,[1],77.3 nM
Cc1ccc2c(c1)C(c1c[nH]cn1)CCO2 (stereo not drawn),EC50,[1],2030 nM
Cc1ccc2c(c1Br)OCC=C2c1c[nH]cn1,EC50,[1],104 nM
COc1ccc2c(c1)C(c1c[nH]cn1)=CCO2,EC50,[1],> 5000 nM
Brc1ccc2c(c1)OCC=C2c1c[nH]cn1,EC50,[1],> 5000 nM
Fc1cccc2c1OCCC2c1c[nH]cn1 (stereo not drawn),EC50,[1],56.9 nM
Fc1ccc2c(c1)OCCC2c1cnc[nH]1 (stereo not drawn),EC50,[1],80.9 nM

# From ChEMBL document CHEMBL5500407, “Designing Chromane Derivatives as α2A-Adrenoceptor Selective Agonists via Conformation Constraint” (J Med Chem, 2024)
